Results from patent publication US11109593B2, “Isoxazolin-5-one derivative and herbicide containing same as active ingredient” (HOKKO CHEMICAL INDUSTRY CO., LTD., priority 2017, dated 2021).

Key:
Echinochloa crus-galli [1] = test: Test Example 1: herbicidal effect test by treatment of rice paddy soil (immediately after seeding); type: in vivo; details: 120 g/10a active ingredient, dry weight vs untreated area, 14 days after treatment; for pest or weed control at 1200 g/ha: in Echinochloa crus-galli, 336 h, read-out: Herbicidal rate (%) Echinochloa crus-galli
Procedure, shortened: (§1)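 Flooded paddy pot test in a glass greenhouse: emulsion diluted in water, dropped at 120 g a.i. per 10 ares just after sowing, water depth kept about 3 cm. Dry-weight reduction relative to untreated plants is scored at 14 days.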

Scirpus juncoides [2] = test: as above; type: in vivo; details: 120 g/10a active ingredient, dry weight vs untreated area, 14 days after treatment; for pest or weed control at 1200 g/ha: in Schoenoplectiella juncoides, 336 h, read-out: Herbicidal rate (%) Scirpus juncoides
Procedure, shortened: as §1

[3] = tested on: broad leaf weeds (Lindernia pyxidaria and Monochoria vaginalis); test: as above; type: in vivo; details: 120 g/10a active ingredient, dry weight vs untreated area, 14 days after treatment; for pest or weed control at 1200 g/ha: 336 h
Procedure, shortened: as §1

Echinochloa crus-galli [4] = test: Test Example 2: herbicidal effect test by treatment during growing period in paddy rice cultivation (seven days after seeding); type: in vivo; details: 120 g/10a active ingredient, assessed 14 days after treatment, dry weight vs untreated area; for pest or weed control at 1200 g/ha: Echinochloa crus-galli, 336 h, read-out: herbicidal rate (%) Echinochloa crus-galli
Procedure, shortened: (§2)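 Herbicidal rate = (1 − treated/untreated mean dry weight) × 100, scored 14 days after application, two replicates per rate. Treatment: diluted emulsion dropped onto paddy water seven days after sowing, 120 g active ingredient per 10 ares, in a glass greenhouse.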

Scirpus juncoides [5] = test: as above; type: in vivo; details: 120 g/10a active ingredient, assessed 14 days after treatment, dry weight vs untreated area; for pest or weed control at 1200 g/ha: Schoenoplectiella juncoides, 336 h, read-out: herbicidal rate (%) Scirpus juncoides
Procedure, shortened: as §2

[6] = tested on: broad leaf weeds (Lindernia pyxidaria and Monochoria vaginalis); test: as above; type: in vivo; details: 120 g/10a active ingredient, assessed 14 days after treatment, dry weight vs untreated area; for pest or weed control at 1200 g/ha: 336 h
Procedure, shortened: as §2

Amaranthus viridis [7] = test: Test Example 3: herbicidal effect test by treatment of dry field farming soil (one day after seeding); type: in vivo; details: 120 g/10a active ingredient, evaluated 14 days after treatment; for pest or weed control at 1200 g/ha: Amaranthus viridis, 336 h, read-out: herbicidal rate, Amaranthus viridis
Procedure, shortened: (§3)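 Seeds (20 each) mixed into top 1 cm of alluvium in pots, surface pressed. One day later, diluted emulsion sprayed onto soil, 100 L/10 a, 120 g a.i./10 a. Dry weight at 14 d vs untreated gave % herbicidal rate; n=2.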

Chenopodium album [8] = test: as above; type: in vivo; details: 120 g/10a active ingredient, evaluated 14 days after treatment; for pest or weed control at 1200 g/ha: Chenopodium album, 336 h, read-out: herbicidal rate, Chenopodium album
Procedure, shortened: as §3

Echinochloa crus-galli [9] = test: as above; type: in vivo; details: 120 g/10a active ingredient, evaluated 14 days after treatment; for pest or weed control at 1200 g/ha: Echinochloa crus-galli, 336 h, read-out: herbicidal rate, Echinochloa crus-galli
Procedure, shortened: as §3

southern crabgrass [10] = test: as above; type: in vivo; details: 120 g/10a active ingredient, evaluated 14 days after treatment; for pest or weed control at 1200 g/ha: Digitaria ciliaris, 336 h, read-out: herbicidal rate, southern crabgrass
Procedure, shortened: as §3

Amaranthus viridis [11] = test: Test Example 4: herbicidal effect test by treatment of leave and stem in dry field farming (seven days after seeding); type: in vivo; details: 120 g/10a active ingredient, emulsion sprayed seven days after seeding, evaluated 14 days after treatment; for pest or weed control at 1200 g/ha: Amaranthus viridis, 336 h, read-out: herbicidal effect (herbicidal rate), Amaranthus viridis
Procedure, shortened: (§4)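 Duplicate pots were scored 14 days post-spray by dry weight, herbicidal rate = {1 − treated/untreated average dry weight} × 100. The water-diluted emulsion, equivalent to 120 g active ingredient per 10 ares in 100 L, was applied seven days after sowing 20 seeds each into the upper 1 cm of alluvial soil.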

Chenopodium album [12] = test: as above; type: in vivo; details: 120 g/10a active ingredient, emulsion sprayed seven days after seeding, evaluated 14 days after treatment; for pest or weed control at 1200 g/ha: Chenopodium album, 336 h, read-out: herbicidal effect (herbicidal rate), Chenopodium album
Procedure, shortened: as §4

Echinochloa crus-galli [13] = test: as above; type: in vivo; details: 120 g/10a active ingredient, emulsion sprayed seven days after seeding, evaluated 14 days after treatment; for pest or weed control at 1200 g/ha: Echinochloa crus-galli, 336 h, read-out: herbicidal effect (herbicidal rate), Echinochloa crus-galli
Procedure, shortened: as §4

southern crabgrass [14] = test: as above; type: in vivo; details: 120 g/10a active ingredient, emulsion sprayed seven days after seeding, evaluated 14 days after treatment; for pest or weed control at 1200 g/ha: Digitaria ciliaris, 336 h, read-out: herbicidal effect (herbicidal rate), southern crabgrass
Procedure, shortened: as §4

[15] = Monochoria vaginalis, read-out: Herbicidal rate (%) Monochoria vaginalis
[16] = in Lindernia, Lindernia pyxidaria, read-out: Herbicidal rate (%) Lindernia pyxidaria
[17] = Lindernia pyxidaria, read-out: herbicidal rate (%) Lindernia pyxidaria
[18] = Monochoria vaginalis, read-out: herbicidal rate (%) Monochoria vaginalis

SMILES	pest or weed control at 1200 g/ha (Echinochloa crus-galli [1])	pest or weed control at 1200 g/ha (Scirpus juncoides [2])	pest or weed control at 1200 g/ha [3, 15]	pest or weed control at 1200 g/ha [3, 16]	pest or weed control at 1200 g/ha (Echinochloa crus-galli [4])	pest or weed control at 1200 g/ha (Scirpus juncoides [5])	pest or weed control at 1200 g/ha [6, 17]	pest or weed control at 1200 g/ha [6, 18]	pest or weed control at 1200 g/ha (Amaranthus viridis [7])	pest or weed control at 1200 g/ha (Chenopodium album [8])	pest or weed control at 1200 g/ha (Echinochloa crus-galli [9])	pest or weed control at 1200 g/ha (southern crabgrass [10])	pest or weed control at 1200 g/ha (Amaranthus viridis [11])	pest or weed control at 1200 g/ha (Chenopodium album [12])	pest or weed control at 1200 g/ha (Echinochloa crus-galli [13])	pest or weed control at 1200 g/ha (southern crabgrass [14])	melting point	Herbicidal rate (%) Echinochloa crus-galli (Echinochloa crus-galli [1])	Herbicidal rate (%) Scirpus juncoides (Scirpus juncoides [2])	Herbicidal rate (%) Lindernia pyxidaria ([3]; Lindernia pyxidaria)	also measured
COCC(C)n1oc(=O)c(Cc2ccccc2N(S(=O)(=O)C(F)(F)F)S(=O)(=O)C(F)(F)F)c1C (centres unmarked) [Compound 1-997, 1,1,1-trifluoro-N-[2-[[2-(2-methoxy-1-methyl-ethyl)-3-methyl-5-oxo-isoxazol-4-yl]methyl]phenyl]-N-(trifluoromethylsulfonyl)methanesulfonamide]	90%	90%	80%	90%	90%	90%	70%	90%	50%	50%	90%	90%	40%	0%	70%	40%	116 to 118 °C	–	–	–	–
COCC(C)n1oc(=O)c(Cc2ccccc2NS(=O)(=O)C(F)(F)F)c1C (centres unmarked) [Compound 1-149, 1,1,1-trifluoro-N-[2-[[2-(2-methoxy-1-methyl-ethyl)-3-methyl-5-oxo-isoxazol-4-yl]methyl]phenyl]methanesulfonamide]	90%	90%	90%	90%	100%	90%	90%	90%	40%	40%	90%	90%	40%	40%	90%	90%	107 to 109 °C	–	–	–	–
CCC(C)n1oc(=O)c(Cc2ccccc2N(C(=O)OC)S(=O)(=O)C(F)(F)F)c1C (centres unmarked) [Compound 1-577, methyl N-[2-[(3-methyl-5-oxo-2-sec-butyl-isoxazol-4-yl)methyl]phenyl]-N-(trifluoromethylsulfonyl)carbamate]	90%	90%	90%	90%	90%	90%	90%	90%	90%	90%	90%	90%	40%	40%	90%	90%	75 to 80 °C	–	–	–	–
Cc1c(Cc2ccccc2N(S(=O)(=O)C(F)(F)F)S(=O)(=O)C(F)(F)F)c(=O)on1CC(C)C [Compound 1-967, 1,1,1-trifluoro-N-[2-[(2-isobutyl-3-methyl-5-oxoisoxazol-4-yl)methyl]phenyl]-N-(trifluoromethylsulfonyl)methanesulfonamide]	90%	90%	100%	90%	90%	80%	100%	90%	80%	40%	50%	90%	40%	40%	60%	0%	120 to 122 °C	–	–	–	–
Cc1c(Cc2ccccc2N(S(=O)(=O)C(F)(F)F)S(=O)(=O)C(F)(F)F)c(=O)on1CCS(C)(=O)=O [Compound 1-1006]	–	–	–	–	–	–	–	–	–	–	–	–	–	–	–	–	–	70%	90%	70%	Herbicidal rate (%) Monochoria vaginalis ([3]; Monochoria vaginalis): 60%; Herbicidal rate (%) Echinochloa crus-galli (Echinochloa crus-galli [4]): 80%; Herbicidal rate (%) Scirpus juncoides (Scirpus juncoides [5]): 90%; Herbicidal rate (%) Lindernia pyxidaria ([6]; Lindernia pyxidaria): 60%; Herbicidal rate (%) Monochoria vaginalis ([6]; Monochoria vaginalis): 80%; herbicidal rate, Amaranthus viridis (Amaranthus viridis [7]): 60%; herbicidal rate, Chenopodium album (Chenopodium album [8]): 60%; herbicidal rate, Echinochloa crus-galli (Echinochloa crus-galli [9]): 80%; herbicidal rate, southern crabgrass (southern crabgrass [10]): 60%; herbicidal effect (herbicidal rate), Amaranthus viridis (Amaranthus viridis [11]): 40%; herbicidal effect (herbicidal rate), Chenopodium album (Chenopodium album [12]): 40%; herbicidal effect (herbicidal rate), Echinochloa crus-galli (Echinochloa crus-galli [13]): 40%; herbicidal effect (herbicidal rate), southern crabgrass (southern crabgrass [14]): 40%
Cc1c(Cc2cc(F)ccc2NS(=O)(=O)C(F)(F)F)c(=O)on1CC(C)C [Compound 1-28]	–	–	–	–	–	–	–	–	–	–	–	–	–	–	–	–	–	100%	90%	90%	Herbicidal rate (%) Monochoria vaginalis ([3]; Monochoria vaginalis): 100%; Herbicidal rate (%) Echinochloa crus-galli (Echinochloa crus-galli [4]): 100%; Herbicidal rate (%) Scirpus juncoides (Scirpus juncoides [5]): 90%; Herbicidal rate (%) Lindernia pyxidaria ([6]; Lindernia pyxidaria): 80%; Herbicidal rate (%) Monochoria vaginalis ([6]; Monochoria vaginalis): 100%; herbicidal rate, Amaranthus viridis (Amaranthus viridis [7]): 100%; herbicidal rate, Chenopodium album (Chenopodium album [8]): 100%; herbicidal rate, Echinochloa crus-galli (Echinochloa crus-galli [9]): 90%; herbicidal rate, southern crabgrass (southern crabgrass [10]): 80%; herbicidal effect (herbicidal rate), Amaranthus viridis (Amaranthus viridis [11]): 80%; herbicidal effect (herbicidal rate), Chenopodium album (Chenopodium album [12]): 40%; herbicidal effect (herbicidal rate), Echinochloa crus-galli (Echinochloa crus-galli [13]): 90%; herbicidal effect (herbicidal rate), southern crabgrass (southern crabgrass [14]): 50%
CCC(CC)Cn1oc(=O)c(Cc2ccccc2N(S(=O)(=O)C(F)(F)F)S(=O)(=O)C(F)(F)F)c1C [Compound 1-973]	–	–	–	–	–	–	–	–	–	–	–	–	–	–	–	–	–	100%	100%	100%	Herbicidal rate (%) Monochoria vaginalis ([3]; Monochoria vaginalis): 80%; Herbicidal rate (%) Echinochloa crus-galli (Echinochloa crus-galli [4]): 100%; Herbicidal rate (%) Scirpus juncoides (Scirpus juncoides [5]): 90%; Herbicidal rate (%) Lindernia pyxidaria ([6]; Lindernia pyxidaria): 60%; Herbicidal rate (%) Monochoria vaginalis ([6]; Monochoria vaginalis): 90%; herbicidal rate, Amaranthus viridis (Amaranthus viridis [7]): 90%; herbicidal rate, Chenopodium album (Chenopodium album [8]): 90%; herbicidal rate, Echinochloa crus-galli (Echinochloa crus-galli [9]): 100%; herbicidal rate, southern crabgrass (southern crabgrass [10]): 100%; herbicidal effect (herbicidal rate), Amaranthus viridis (Amaranthus viridis [11]): 40%; herbicidal effect (herbicidal rate), Chenopodium album (Chenopodium album [12]): 0%; herbicidal effect (herbicidal rate), Echinochloa crus-galli (Echinochloa crus-galli [13]): 90%; herbicidal effect (herbicidal rate), southern crabgrass (southern crabgrass [14]): 80%
